The values that follow come from ChEMBL document CHEMBL1128795, “N-(Quinuclidin-3-yl)-2-(1-methyl-1H-indol-3-yl)-2-oxo-acetamide: a high affinity 5-HT3 receptor partial agonist” (Bioorg Med Chem Lett, 1995).

The target of experiment [1] is T1, 5-hydroxytryptamine receptor 1A (Mus musculus, UniProt Q64264).
T1 sequence (Q64264 whole entry): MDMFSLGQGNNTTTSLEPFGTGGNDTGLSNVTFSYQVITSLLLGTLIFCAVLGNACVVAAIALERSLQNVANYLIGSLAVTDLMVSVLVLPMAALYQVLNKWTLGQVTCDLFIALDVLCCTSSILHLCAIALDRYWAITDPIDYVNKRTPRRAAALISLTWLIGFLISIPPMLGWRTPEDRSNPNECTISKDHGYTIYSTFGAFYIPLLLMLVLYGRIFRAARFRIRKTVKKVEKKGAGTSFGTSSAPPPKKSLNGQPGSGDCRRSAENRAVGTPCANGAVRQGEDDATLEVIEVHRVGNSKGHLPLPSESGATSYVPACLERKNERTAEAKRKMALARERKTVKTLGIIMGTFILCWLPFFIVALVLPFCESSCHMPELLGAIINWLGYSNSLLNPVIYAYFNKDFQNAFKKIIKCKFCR
Kind of experiment: Binding affinity against 5-hydroxytryptamine 1A receptor.

The target in experiment [2] is 5-hydroxytryptamine receptor 1D (Homo sapiens, UniProt P28221). Description: Binding affinity against 5-Hydroxytryptamine 1D receptor.
The target in experiment [3] is T2, Alpha-2B adrenergic receptor (Homo sapiens, UniProt P18089).
T2 sequence (P18089 whole entry): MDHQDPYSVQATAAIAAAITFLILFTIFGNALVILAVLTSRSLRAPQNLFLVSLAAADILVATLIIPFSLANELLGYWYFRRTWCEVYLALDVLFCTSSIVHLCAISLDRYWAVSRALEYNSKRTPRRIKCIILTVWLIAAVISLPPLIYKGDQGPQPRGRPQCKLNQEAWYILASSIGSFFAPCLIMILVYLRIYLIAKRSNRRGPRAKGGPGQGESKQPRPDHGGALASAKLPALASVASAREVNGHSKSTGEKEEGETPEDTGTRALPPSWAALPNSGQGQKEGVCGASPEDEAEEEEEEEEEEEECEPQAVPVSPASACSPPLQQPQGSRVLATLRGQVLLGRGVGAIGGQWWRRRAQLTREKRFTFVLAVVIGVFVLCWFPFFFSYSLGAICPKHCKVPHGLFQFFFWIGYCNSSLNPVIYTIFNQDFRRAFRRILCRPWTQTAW
Description: Binding affinity against Alpha-2B adrenergic receptor.

For experiment [4], the target named is T3, Alpha-1A adrenergic receptor (Homo sapiens, UniProt P35348).
T3 sequence (P35348 whole entry): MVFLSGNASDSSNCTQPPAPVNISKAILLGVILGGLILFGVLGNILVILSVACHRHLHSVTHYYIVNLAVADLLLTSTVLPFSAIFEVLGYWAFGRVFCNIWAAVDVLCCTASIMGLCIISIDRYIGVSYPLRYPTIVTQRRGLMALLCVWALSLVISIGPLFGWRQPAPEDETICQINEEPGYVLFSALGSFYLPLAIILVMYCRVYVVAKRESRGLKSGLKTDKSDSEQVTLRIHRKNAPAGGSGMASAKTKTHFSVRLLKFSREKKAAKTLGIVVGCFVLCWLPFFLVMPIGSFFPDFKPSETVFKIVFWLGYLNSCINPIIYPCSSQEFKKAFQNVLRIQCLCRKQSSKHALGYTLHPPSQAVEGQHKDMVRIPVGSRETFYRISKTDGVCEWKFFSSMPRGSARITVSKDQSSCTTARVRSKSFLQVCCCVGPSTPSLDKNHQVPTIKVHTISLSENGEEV
Description: Binding affinity against Alpha-1A adrenergic receptor.

The target of experiment [5] is Beta-2 adrenergic receptor (Homo sapiens, UniProt P07550). Description: Binding affinity against Beta-2 adrenergic receptor.
For experiment [6], the target named is T4, Muscarinic acetylcholine receptor M2 (Homo sapiens, UniProt P08172).
T4 sequence (P08172 whole entry): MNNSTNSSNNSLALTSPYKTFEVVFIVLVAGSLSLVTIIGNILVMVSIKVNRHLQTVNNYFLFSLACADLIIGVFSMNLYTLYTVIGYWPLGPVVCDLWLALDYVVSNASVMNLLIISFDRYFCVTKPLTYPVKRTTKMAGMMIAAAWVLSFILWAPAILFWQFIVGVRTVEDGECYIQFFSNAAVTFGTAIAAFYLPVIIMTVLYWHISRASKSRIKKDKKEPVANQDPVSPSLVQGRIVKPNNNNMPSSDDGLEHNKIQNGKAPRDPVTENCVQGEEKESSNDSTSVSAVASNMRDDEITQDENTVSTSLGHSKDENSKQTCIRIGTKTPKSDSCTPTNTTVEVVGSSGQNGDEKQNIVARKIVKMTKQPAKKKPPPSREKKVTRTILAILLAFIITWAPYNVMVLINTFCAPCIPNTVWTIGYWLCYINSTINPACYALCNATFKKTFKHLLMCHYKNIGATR
Description: Binding affinity against Muscarinic M2 receptor.

The target of experiment [7] is T5, Muscarinic acetylcholine receptor M1 (Homo sapiens, UniProt P11229).
T5 sequence (P11229 whole entry): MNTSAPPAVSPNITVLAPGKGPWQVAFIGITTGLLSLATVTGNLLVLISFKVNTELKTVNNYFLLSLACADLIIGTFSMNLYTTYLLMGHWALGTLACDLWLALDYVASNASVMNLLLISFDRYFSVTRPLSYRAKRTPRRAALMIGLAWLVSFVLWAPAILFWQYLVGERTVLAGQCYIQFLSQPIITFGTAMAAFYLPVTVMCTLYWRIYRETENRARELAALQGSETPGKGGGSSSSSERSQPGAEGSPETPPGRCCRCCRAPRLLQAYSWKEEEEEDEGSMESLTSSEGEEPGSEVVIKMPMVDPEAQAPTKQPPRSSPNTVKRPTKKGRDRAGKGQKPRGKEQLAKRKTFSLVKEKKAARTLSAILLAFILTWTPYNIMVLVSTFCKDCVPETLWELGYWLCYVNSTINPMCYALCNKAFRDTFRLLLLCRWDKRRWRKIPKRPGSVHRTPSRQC
Description: Binding affinity against Muscarinic M1 receptor.

Experiment [8] is filed under the species Rattus norvegicus. Kind of experiment: Tested for effective concentration against 5-HT mediated depolarization of isolated rat vagus nerve. The class given is functional.
For experiment [9], the target named is 5-hydroxytryptamine receptor 4 (Homo sapiens, UniProt Q13639). Kind of experiment: Binding affinity against 5-hydroxytryptamine 4 receptor.
The species named for experiment [10] is Rattus norvegicus. Kind of experiment: Tested for maximum response in depolarization of isolated rat vagus nerve measured at dose 1 uM. The class given is functional.

Beta-2 adrenergic receptor, sequence (P07550 whole entry): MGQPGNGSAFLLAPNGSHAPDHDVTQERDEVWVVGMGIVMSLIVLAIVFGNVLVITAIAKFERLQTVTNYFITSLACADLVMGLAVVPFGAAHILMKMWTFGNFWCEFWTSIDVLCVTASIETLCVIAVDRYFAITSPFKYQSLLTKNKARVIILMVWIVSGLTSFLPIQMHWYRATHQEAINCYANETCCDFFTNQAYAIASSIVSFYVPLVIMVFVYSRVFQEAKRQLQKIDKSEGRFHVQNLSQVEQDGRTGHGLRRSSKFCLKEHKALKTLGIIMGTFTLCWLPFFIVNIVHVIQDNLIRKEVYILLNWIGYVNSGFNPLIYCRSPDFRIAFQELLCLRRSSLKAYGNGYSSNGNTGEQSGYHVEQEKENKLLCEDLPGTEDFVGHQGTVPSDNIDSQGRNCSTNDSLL
5-hydroxytryptamine receptor 1D, sequence (P28221 whole entry): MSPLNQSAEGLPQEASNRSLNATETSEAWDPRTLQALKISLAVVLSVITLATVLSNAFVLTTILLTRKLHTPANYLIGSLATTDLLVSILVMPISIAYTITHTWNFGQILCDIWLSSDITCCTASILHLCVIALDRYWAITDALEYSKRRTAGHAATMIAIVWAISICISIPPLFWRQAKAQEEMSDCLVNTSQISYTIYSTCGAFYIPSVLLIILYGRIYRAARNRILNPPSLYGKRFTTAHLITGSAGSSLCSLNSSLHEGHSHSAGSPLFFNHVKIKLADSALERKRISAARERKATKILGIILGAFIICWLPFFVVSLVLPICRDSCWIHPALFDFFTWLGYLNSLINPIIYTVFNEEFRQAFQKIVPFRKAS
5-hydroxytryptamine receptor 4, sequence (Q13639 whole entry): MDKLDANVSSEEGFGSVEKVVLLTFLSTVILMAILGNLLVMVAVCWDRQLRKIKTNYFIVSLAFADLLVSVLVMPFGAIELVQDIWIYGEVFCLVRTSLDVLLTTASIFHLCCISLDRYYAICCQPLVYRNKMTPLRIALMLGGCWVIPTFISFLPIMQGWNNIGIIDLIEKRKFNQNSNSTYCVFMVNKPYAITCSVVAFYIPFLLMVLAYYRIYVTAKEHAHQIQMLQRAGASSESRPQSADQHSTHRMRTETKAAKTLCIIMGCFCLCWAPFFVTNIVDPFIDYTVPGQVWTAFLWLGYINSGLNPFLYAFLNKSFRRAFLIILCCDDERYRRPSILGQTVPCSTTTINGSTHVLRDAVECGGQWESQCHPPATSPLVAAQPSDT

One may read the Ki as a measure of affinity in units of concentration, obtained from inhibition or displacement. A low value points to a stronger hold on the target. Usually EC50 stands for the midpoint of the concentration-response curve. The low end stands for a more potent agent, the high end for a less potent agent. Take `Cn1cc(C(=O)C(=O)N[C@@H]2CN3CCC2CC3)c2ccccc21`: the Ki was greater than 100 µM in experiment [1]; greater than 100 µM in experiment [2]; 25.1 µM in experiment [3]; 25.1 µM in [4]; greater than 100 µM in [5]; 50.1 µM in experiment [6]. The same compound gave a Ki in experiment [7] of 25.1 µM. For the same compound, in the experiment listed under Rattus norvegicus [8], the concentration for a half-maximal effect (EC50) was 2.14 µM.

For `Cn1cc(C(=O)C(=O)N[C@H]2CN3CCC2CC3)c2ccccc21`, the Ki was greater than 100 µM in experiment [1]; 39.8 µM in experiment [2]; 0.251 µM in [9]; 3.16 µM in experiment [3]; greater than 10 µM in experiment [4]; greater than 10 µM in experiment [5]. Further, the Ki in [6] was 50.1 µM; in [7], 10 µM. In the experiment filed under Rattus norvegicus [8], this compound gave an EC50 of 0.0355 µM. For the same compound, the Max response in the experiment listed under Rattus norvegicus [10] came out at 140 uV.
